According to publication PMC12169680, “Design and Mechanistic Analysis of a Potent Bivalent Inhibitor of Transthyretin Amyloid Fibrillogenesis” (Journal of Medicinal Chemistry, 2025):

Legend:
V122I TTR = target: T1, V122I TTR (Homo sapiens, UniProt P02766, V142I); test: Inhibition of mechano-enzymatic fibrillogenesis (ThT); assay type: biochemical; conditions: for antifibrillogenic activity, in words: V122I TTR
T1 construct: 1-127; His6 (N); TEV cleavage site (N); made in house; host or cells: E. coli BL21 (DE3)
Method: To test their potency as inhibitors of TTR fibril formation, the 15 ligands were evaluated for their ability to inhibit the mechano-enzymatic mechanism of fibrillogenesis of V122I TTR, which is one of the most common amyloidogenic variants, , causing a disease with severity intermediate between the wild-type and other rare, more aggressive types of amyloidosis. […] Biochemical activity of ligands together with their physicochemical properties (i.e., cLogD, TPSA) were taken into consideration and B26 was finally selected as the most promising lead for further studies (Figure A). […] Prototype mds84 was also included for comparison. […] Although higher molar ratios of the monovalent ligands did inhibit fibrillogenesis, this cannot be replicated in vivo because the negative cooperativity of TTR cannot be overcome at feasible drug dosage. ,
Recombinant V122I TTR at 0.5 mg/mL (9 μM) in PBS, pH 7.4 was preincubated (37 °C for 30 min) with an equimolar concentration of ligand (or DMSO alone) before adding trypsin (5 ng/μL). Protein fibrillogenesis was carried out in glass vials stirred at 1400 rpm (IKA magnetic stirrer), 37 °C and spectrophotometric turbidity at 400 nm was used to monitor fibril formation over time until it reached a plateau at 96 h.
Analysis of amyloid material harvested from each sample at the end of the fibrillogenesis was carried out using Thioflavin T (ThT) emission fluorescence and Congo red staining. For these analyses, samples were centrifuged 20 min at 11,600g and pellets were thoroughly rinsed with PBS to remove nonbound ligand, resuspended with 100 μL PBS, pH 7.4, containing 10 μM Thioflavin T (ThT) in Costar 96-well black-wall plates. Bottom fluorescence values (excitation 440 nm, emission 480 nm) were recorded using a BMG LABTECH FLUostar Omega plate reader. Each value was normalized to the ThT signal of the TTR sample without ligand.

[1] = target: T2, wild-type TTR in normal human plasma (Homo sapiens, UniProt P02766); test: Displacement of 125I-T4 from TTR in normal human plasma; assay type: binding; conditions: for binding to TTR in plasma, in words: normal human plasma
T2 construct: TTR in whole plasma, from individuals homozygous for wild-type TTR; from tissue; host or cells: whole human plasma from individuals homozygous for wild-type TTR

[2] = target: T3, isolated recombinant wild-type TTR (Homo sapiens, UniProt P02766); test: Displacement of 125I-T4 from isolated wild-type TTR; assay type: binding; conditions: for IC50: ligand concentration reducing binding of 125I-thyroxine by isolated recombinant wild-type TTR by 50%, mean ± SD, read-out: bIC50; for IC50 in buffer (bIC50) compared to mds84, in words: isolated TTR
T3 construct: Native TTR is a noncovalent homotetramer of β-sheet-rich 127-residue protomers; His6 (N); TEV cleavage site (N); made in house; host or cells: E. coli BL21 (DE3)
Method: Competition of ligands with thyroxine for binding by TTR was assayed quantitatively by a previously described procedure.

[3] = ligand concentration reducing binding of 125I-thyroxine by wild-type TTR by 50% in normal human plasma, mean ± SD
[4] = residual V122I TTR fibrillar aggregation with equimolar ligand, ThT emission normalized to protein without ligand, mean ± SD
[5] = supplementary CSV, residual V122I TTR aggregation, equimolar ligand

| Structure (SMILES) | inhibition of V122I TTR amyloid formation at equimolar ligand/protein, in words (V122I TTR; 9 μM V122I TTR, equimolar concentration, bivalent vs monovalent ligands) | IC50 [1, 3] | binding to TTR in plasma, in words [1] | IC50 [2] | antifibrillogenic activity, in words (V122I TTR; equimolar ligand) | Agg (%) (V122I TTR; [4]) | Agg (%) (V122I TTR; [5]) | IC50 ([1]; supplementary CSV, TTR in normal human plasma) | IC50 in buffer (bIC50) compared to mds84, in words [2] |
| --- | --- | --- | --- | --- | --- | --- | --- | --- | --- |
| Cc1n[nH]c(C)c1CCCOc1cc(C(=O)O)ccc1F [AG10, acoramidis, reference compound] | significantly lower inhibitory effect |  |  |  |  |  |  |  |  |
| O=C(O)CCc1cc(Cl)c(OCCCOCCOc2c(Cl)cc(Nc3ccccc3C(=O)O)cc2Cl)c(Cl)c1 [B1, 2-[4-[2-[3-[4-(2-Carboxyethyl)-2,6-dichloro-phenoxy]-propoxy]-ethoxy]-3,5-dichloro-anilino]-Benzoic Acid] |  | 1.1 ± 0.11 µM | increased the potency of binding | 100 ± 30 nM | excellent inhibitors of fibrillogenesis | 5.2 ± 3.6% | 5.2±3.6% |  |  |
| O=C(O)CCc1cc(Cl)c(OCCOCCCCOc2c(Cl)cc(Nc3ccccc3C(=O)O)cc2Cl)c(Cl)c1 [B2, 2-[4-[4-[2-[4-(2-Carboxyethyl)-2,6-dichloro-phenoxy]-ethoxy]-butoxy]-3,5-dichloro-anilino]-Benzoic Acid] |  | 2.6 ± 0.59 µM | increased the potency of binding |  | excellent inhibitors of fibrillogenesis | 4.4 ± 1.5% | 4.4±1.5% |  |  |
| O=C(O)CCc1cc(Cl)c(OCC[C@H](O)[C@@H](O)CCOc2c(Cl)cc(Nc3ccccc3C(=O)O)cc2Cl)c(Cl)c1 [B4, 2-[4-[(3S,4S)-6-[4-(2-Carboxyethyl)-2,6-dichloro-phenoxy]-3,4-dihydroxy-hexoxy]-3,5-dichloro-anilino]-benzoic acid] |  |  | increased the potency of binding |  | excellent inhibitors of fibrillogenesis | 4.4 ± 3.0% |  |  |  |
| O=C(O)CCc1cc(Cl)c(OCC[C@@H](O)[C@H](O)CCOc2c(Cl)cc(Nc3ccccc3C(=O)O)cc2Cl)c(Cl)c1 [B4A, 2-[4-[(3R,4R)-6-[4-(2-carboxyethyl)-2,6-dichloro-phenoxy]-3,4-dihydroxy-hexoxy]-3,5-dichloro-anilino]-Benzoic Acid] |  |  | increased the potency of binding | 70 ± 9 nM | excellent inhibitors of fibrillogenesis | 3.3 ± 1.2% | 4.4±3.0% | 4.4 ± 1.2 µM |  |
| O=C(O)COCCOCCOCCOc1c(Cl)cc(Nc2ccccc2C(=O)O)cc1Cl [B5, 2-[4-[2-[2-[2-(Carboxymethoxy)-ethoxy]-ethoxy]-ethoxy]-3,5-dichloro-anilino]-Benzoic Acid] |  |  | reduced binding | 5000 ± 400 nM | Antifibrillogenic activity was reduced | 28.8 ± 13.4% | 28.8±13.4% |  | higher values of IC50 |
| O=C(O)CCOCCCOCCCOCCCOc1c(Cl)cc(Nc2ccccc2C(=O)O)cc1Cl [B6, 2-[4-[3-[3-[3-(2-Carboxy-ethoxy)-propoxy]-propoxy]-propoxy]-3,5-dichloro-anilino]-Benzoic Acid] |  | 40 ± 13 µM | reduced binding | 1200 ± 410 nM | Antifibrillogenic activity was reduced | 12 ± 4.4% | 12±4.4% |  | higher values of IC50 |
| O=C(O)CCc1cc(Cl)c(OCOCCCOc2c(Cl)cc(Nc3ccccc3C(=O)O)cc2Cl)c(Cl)c1 [B8, 2-[4-[3-[[4-(2-Carboxyethyl)-2,6-dichloro-phenoxy]-methoxy]-propoxy]-3,5-dichloro-anilino]-Benzoic Acid] |  | > 150 µM | reduced binding | 2100 ± 210 nM | Antifibrillogenic activity was reduced | 12 ± 3.7% | 12±3.7% |  | higher values of IC50 |
| O=C(O)CCc1cc(Cl)c(OCC/C=C/CCOc2c(Cl)cc(Nc3ccccc3C(=O)O)cc2Cl)c(Cl)c1 [B14, 2-[4-[(E)-6-[4-(2-Carboxyethyl)-2,6-dichloro-phenoxy]-hex-3-enoxy]-3,5-dichloro-anilino]-Benzoic Acid] |  | 11 ± 2.9 µM |  | 80 ± 8 nM | Antifibrillogenic activity was reduced | 13 ± 3.2% | 13±3.2% |  |  |
| O=C(O)CCc1cc(Cl)c(OCC[C@@H](O)[C@H](O)CCOc2ccc(Nc3ccccc3C(=O)O)cc2Cl)c(Cl)c1 [B20, 2-[4-[(3R,4R)-6-[4-(2-Carboxyethyl)-2,6-dichloro-phenoxy]-3,4-dihydroxy-hexoxy]-3-chloro-anilino]-Benzoic Acid] |  |  | reduction in the observed potency |  | reduced potency | 11 ± 4.1% | 11±4.1% |  |  |
| O=C(O)CCc1ccc(OCCC(O)C(O)CCOc2c(Cl)cc(Nc3ccccc3C(=O)O)cc2Cl)c(Cl)c1 (stereo not drawn) [B21, 2-[4-[6-[4-(2-Carboxyethyl)-2-chloro-phenoxy]-3,4-dihydroxy-hexoxy]-3,5-dichloro-anilino]-Benzoic Acid] |  | 4.1 ± 2.1 µM | reduction in the observed potency | 70 ± 4 nM | reduced potency | 15 ± 2.8% | 15±2.8% |  |  |
| O=C(O)CCc1ccc(OCC[C@@H](O)[C@H](O)CCOc2ccc(Nc3ccccc3C(=O)O)cc2Cl)c(Cl)c1 [B22, 2-[4-[(3R,4R)-6-[4-(2-Carboxyethyl)-2-chloro-phenoxy]-3,4-dihydroxy-hexoxy]-3-chloro-anilino]Benzoic Acid] |  |  | reduction in the observed potency |  | reduced potency | 15 ± 2.8% | 15±2.8% |  |  |
| O=C(O)CCc1cc(Cl)c(OCCCOCCOc2c(Cl)cc(Nc3cnncc3C(=O)O)cc2Cl)c(Cl)c1 [B24, 5-[4-[2-[3-[4-(2-Carboxyethyl)-2,6-dichloro-phenoxy]-propoxy]-ethoxy]-3,5-dichloro-anilino]-Pyridazine-4-Carboxylic acid] |  | 7.9 ± 1.4 µM | slight reduction of binding potency | 100 ± 5 nM |  | 13 ± 8.2% | 13±8.2% |  |  |
| O=C(O)CCc1cc(Cl)c(OCCCOCCOc2c(Cl)cc(Nc3ccnnc3C(=O)O)cc2Cl)c(Cl)c1 [B25, 4-[4-[2-[3-[4-(2-Carboxyethyl)-2,6-dichloro-phenoxy]-propoxy]-ethoxy]-3,5-dichloro-anilino]-Pyridazine-3-Carboxylic acid] |  | 3.3 ± 1.8 µM | preservation of the properties |  |  | 11 ± 4.8% | 11±4.8% |  |  |
| O=C(O)CCc1cc(Cl)c(OCCCOCCOc2c(Cl)cc(Nc3ccncc3C(=O)O)cc2Cl)c(Cl)c1 [B27, 4-[4-[2-[3-[4-(2-Carboxyethyl)-2,6-dichloro-phenoxy]-propoxy]-ethoxy]-3,5-Dichloro-anilino]-Pyridine-3-Carboxylic Acid] |  |  | preservation of the properties |  |  | 12 ± 1.1% | 12±1.1% |  |  |
